pEC50, pIC50: −log10 of the molar value.
Key:
[1] = Clearance in Sprague-Dawley rat at 5 mg/kg, po measured after 0.083 to 24 hrs by LC-MS analysis; format: ADME, organism-based; settings: in vivo, time 0.083-24 hrs
[2] = Acute toxicity in 12 hr fasted female CD-1(ICR) mouse assessed as pathological damage in brain at 2 g/kg, IG administered as single dose measured after 14 days by H and E staining based analysis; format: tissue-based; settings: in vivo, po, 2000 mg/kg, 336 h, time 14 day
[3] = Oral bioavailability in Sprague-Dawley rat at 5 mg/kg measured after 0.083 to 24 hrs by LC-MS analysis; format: ADME, organism-based; settings: in vivo, time 0.083-24 hrs
[4] = Acute toxicity in 12 hr fasted male CD-1(ICR) mouse assessed as pathological damage in kidney at 2 g/kg, IG administered as single dose measured after 14 days by H and E staining based analysis; format: tissue-based; settings: in vivo, po, 2000 mg/kg, 336 h, time 14 day
[5] = Tmax in Sprague-Dawley rat at 5 mg/kg, po measured after 0.083 to 24 hrs by LC-MS analysis; format: ADME, organism-based; settings: in vivo, time 0.083-24 hrs
[6] = MRT (0 to infinity) in Sprague-Dawley rat at 1 mg/kg, iv measured after 0.083 to 24 hrs by LC-MS analysis; format: ADME, organism-based; settings: in vivo, time 0.083-24 hrs
[7] = Acute toxicity in 12 hr fasted female CD-1(ICR) mouse assessed as pathological damage in kidney at 2 g/kg, IG administered as single dose measured after 14 days by H and E staining based analysis; format: tissue-based; settings: in vivo, po, 2000 mg/kg, 336 h, time 14 day
[8] = Acute toxicity in 12 hr fasted male CD-1(ICR) mouse assessed as changes in body weight at 2 g/kg, IG administered as single dose measured after 14 days; settings: in vivo, po, 2000 mg/kg, 336 h, time 14 day
[9] = Cmax in Sprague-Dawley rat at 1 mg/kg, iv measured after 0.083 to 24 hrs by LC-MS analysis; format: ADME, organism-based; set-up: time upper 24 hrs, dose 1 mg/kg, time lower 0.083 hrs, route iv; settings: in vivo
[10] = molecular target: Human immunodeficiency virus type 1 reverse transcriptase (Human immunodeficiency virus 1, UniProt Q72547)
Description: Inhibition of HIV-1 reverse transcriptase using oligo(dT)16 as primer measured after 40 mins by picogreen-dye based spectrofluorometric analysis

[11] = Acute toxicity in 12 hr fasted female CD-1(ICR) mouse assessed as pathological damage in lung at 2 g/kg, IG administered as single dose measured after 14 days by H and E staining based analysis; format: tissue-based; settings: in vivo, po, 2000 mg/kg, 336 h, time 14 day
[12] = system: Human immunodeficiency virus 1; assay: microbe, parasite or virus in culture; settings: Human immunodeficiency virus 1, IIIB, MT4
Description: Antiviral activity against wild type HIV-1 IIIB infected in human MT4 cells assessed as protection against virus-induced cytopathic effect by MTT assay

[13] = Half life in Sprague-Dawley rat at 5 mg/kg, po measured after 0.083 to 24 hrs by LC-MS analysis; format: ADME, organism-based; settings: in vivo, time 0.083-24 hrs
[14] = AUC (0 to infinity) in Sprague-Dawley rat at 5 mg/kg, po measured after 0.083 to 24 hrs by LC-MS analysis; format: ADME, organism-based; set-up: time upper 24 hrs, dose 5 mg/kg, time lower 0.083 hrs, route po; settings: in vivo
[15] = Acute toxicity in 12 hr fasted male CD-1(ICR) mouse assessed as behavioral abnormalities at 2 g/kg, IG administered as single dose measured after 14 days; settings: in vivo, po, 2000 mg/kg, 336 h, time 14 day
[16] = system: Human immunodeficiency virus 1; assay: Antiviral activity against HIV-1 IIIB harboring reverse transcriptase E138K mutant infected in human MT4 cells by MTT assay; format: functional, organism-based; settings: Human immunodeficiency virus 1, IIIB
[17] = system: Human immunodeficiency virus 1; assay: Antiviral activity against HIV-1 IIIB harboring reverse transcriptase […] mutant infected in human MT4 cells by MTT assay; format: functional, organism-based; settings: Human immunodeficiency virus 1, IIIB
[18] = Acute toxicity in 12 hr fasted male CD-1(ICR) mouse assessed as pathological damage in heart at 2 g/kg, IG administered as single dose measured after 14 days by H and E staining based analysis; format: tissue-based; settings: in vivo, po, 2000 mg/kg, 336 h, time 14 day

Compound: COc1cc(-c2ccc(C#N)cc2)ccc1Oc1cc(N)nc(Nc2ccc(C#N)cc2)n1
- CL/F [1]: 675 mL/min/kg
- Activity [2]: Non-Toxic
- bioavailability [3]: 7.57%
- Activity [4]: Non-Toxic
- Tmax [5]: 0.83 h
- MRT inf [6]: 1.18 h
- Activity [7]: Non-Toxic
- Activity [8]: Non-Toxic
- Cmax [9]: 329 ng/mL
- pIC50 [10]: 7.44
- Activity [11]: Non-Toxic
- pEC50 [12]: 8.72
- half-life [13]: 2.33 h
- AUC(0-inf) [14]: 124 ng·h/mL
- Activity [15]: Non-Toxic
- pEC50 [16]: 8.05
- pEC50 [17]: 7.72
- Activity [18]: Non-Toxic

— ChEMBL document CHEMBL5131537 (J Med Chem, 2022)
